Assay results reported in patent US20230322723A1, “COMPOUNDS FOR SUPPRESSING EGFR MUTANT CANCER AND PHARMACEUTICAL USE THEREOF” (J2H BIOTECH INC., priority 2020, published 2023).

Key:
EGFR^del19+T790M+C797S = test: EGFR protein degradation test (Western blot) in Ba/F3 cells expressing mutant EGFR del19+T790M+C797S (DTC); type: cell-based; details: compounds at 0.1 μM and 1 μM, 24 hours, Western blot with EGFR antibody
Experimental: (§1) The ability of the compounds of the present invention to degrade the mutant EGFR protein was confirmed in Ba/F3 cells expressing normal EGFR, mutant EGFR^del19+T790M+C797S or mutant EGFR^L858R+T790M+C797S. A Western blot test using the EGFR antibody was performed.
(§2) Specifically, Ba/F3 cells expressing EGFR were cultured in RPMI 1640 (Gibco, NY, USA) containing 10% fetal bovine serum (FBS, Gibco, NY, USA). Cells expressing normal EGFR, mutant EGFR^del19+T790M+C797S or mutant EGFR^L858R+T790M+C797S were treated with the compounds of the present invention at concentrations of 0.1 μM and 1 μM, respectively, for 24 hours. After that, it was washed twice with phosphate buffered saline (PBS) and SDS-PAGE was performed with 30 μg of cell lysate. After the protein separated on the gel was transferred to a nitrocellulose membrane, the expression level of the EGFR protein was confirmed using an EGFR antibody (Santa Cruz biotechnology, Santacruz, CA, USA). EGFR bands separated by Western blotting were quantitatively analyzed with Fluo-S MultiImager (Bio-Rad, Hercules, CA, USA).

EGFR^L858R+T790M+C797S = target: T1, EGFR^L858R+T790M+C797S (Homo sapiens, UniProt P00533, C797S/L858R/T790M); test: EGFR protein degradation test (Western blot) in Ba/F3 cells expressing mutant EGFR L858R+T790M+C797S (LTC); type: cell-based; details: compounds at 0.1 μM and 1 μM, 24 hours, Western blot with EGFR antibody
T1 construct: expressed in transfected cells; host or cells: Ba/F3
Experimental: as §1, §2

T1 sequence (P00533 25-1210 T790M/C797S/L858R): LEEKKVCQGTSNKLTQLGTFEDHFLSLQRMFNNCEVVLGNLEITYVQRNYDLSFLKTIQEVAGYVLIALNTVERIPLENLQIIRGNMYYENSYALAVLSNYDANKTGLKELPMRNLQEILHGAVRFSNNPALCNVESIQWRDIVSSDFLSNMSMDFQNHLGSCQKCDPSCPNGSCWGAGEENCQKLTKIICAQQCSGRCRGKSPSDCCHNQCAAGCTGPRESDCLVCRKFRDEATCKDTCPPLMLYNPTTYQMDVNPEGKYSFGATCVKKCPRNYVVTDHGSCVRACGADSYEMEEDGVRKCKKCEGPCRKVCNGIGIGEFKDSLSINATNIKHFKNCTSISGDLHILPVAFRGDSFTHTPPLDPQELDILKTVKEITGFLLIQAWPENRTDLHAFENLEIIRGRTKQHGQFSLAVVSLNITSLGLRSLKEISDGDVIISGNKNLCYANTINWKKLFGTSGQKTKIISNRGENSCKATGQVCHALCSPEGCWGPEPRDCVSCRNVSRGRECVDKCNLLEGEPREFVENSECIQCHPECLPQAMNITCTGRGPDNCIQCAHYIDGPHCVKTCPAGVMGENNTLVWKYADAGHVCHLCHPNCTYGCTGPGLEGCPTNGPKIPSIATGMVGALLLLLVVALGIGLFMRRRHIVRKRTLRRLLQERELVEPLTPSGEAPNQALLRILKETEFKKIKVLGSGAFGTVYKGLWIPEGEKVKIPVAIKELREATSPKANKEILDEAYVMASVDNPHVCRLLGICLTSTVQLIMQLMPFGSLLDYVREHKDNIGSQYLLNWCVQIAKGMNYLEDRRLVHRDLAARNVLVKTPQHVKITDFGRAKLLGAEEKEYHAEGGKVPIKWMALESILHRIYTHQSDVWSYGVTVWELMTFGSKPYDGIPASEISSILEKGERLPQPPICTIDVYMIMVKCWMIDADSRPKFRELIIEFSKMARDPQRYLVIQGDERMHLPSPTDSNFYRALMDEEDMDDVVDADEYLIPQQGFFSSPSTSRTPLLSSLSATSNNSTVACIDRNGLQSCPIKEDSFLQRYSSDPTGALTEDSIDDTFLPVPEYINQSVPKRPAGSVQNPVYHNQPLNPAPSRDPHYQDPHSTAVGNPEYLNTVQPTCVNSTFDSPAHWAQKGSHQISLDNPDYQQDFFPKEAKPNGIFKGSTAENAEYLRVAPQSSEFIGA

Row | Compound | DTC (EGFR^del19+T790M+C797S) protein degradation (EGFR^del19+T790M+C797S) | LTC (EGFR^L858R+T790M+C797S) protein degradation (EGFR^L858R+T790M+C797S)
1 | COc1cc(N2CCN(CCOCCOc3cccc4c3C(=O)N(C3CCC(=O)NC3=O)C4=O)CC2)ccc1Nc1ncc(Cl)c(Nc2ccccc2N(C)S(C)(=O)=O)n1 (stereo not drawn) [Compound 12, N-(2-((5-chloro-2-((4-(4-(2-(2-((2-(2,6-dioxopiperidin-3-yl)-1,3-dioxoisoindolin-4-yl)oxy)ethoxy)ethyl)piperazin-1-yl)-2-methoxyphenyl)amino)pyrimidin-4-yl)amino)phenyl)N-methylmethanesulfonamide] | − (Protein degradation < 20%) | − (Protein degradation < 20%)
2 | COc1cc(N2CCC(N3CCN(CCOCCOc4cccc5c4C(=O)N(C4CCC(=O)NC4=O)C5=O)CC3)CC2)ccc1Nc1ncc(Cl)c(Nc2ccccc2N(C)S(C)(=O)=O)n1 (stereo not drawn) [Compound 13, N-(2-((5-chloro-2-((4-(4-(4-(2-(2-((2-(2,6-dioxopiperidin-3-yl)-1,3-dioxoisoindolin-4-yl)oxy)ethoxy)ethyl)piperazin-1-yl)piperidin-1-yl)-2-methoxyphenyl)amino)pyrimidin-4-yl)amino)phenyl)N-methylmethanesulfonamide] | + (Protein degradation 20~80%) | + (Protein degradation 20~80%)
3 | COc1cc(N2CCN(CCCCOc3cccc4c3C(=O)N(C3CCC(=O)NC3=O)C4=O)CC2)ccc1Nc1ncc(Cl)c(Nc2ccccc2N(C)S(C)(=O)=O)n1 (stereo not drawn) [Compound 14, N-(2-((5-chloro-2-((4-(4-(4-((2-(2,6-dioxopiperidin-3-yl)-1,3-dioxoisoindolin-4-yl)oxy)butyl)piperazin-1-yl)-2-methoxyphenyl)amino)pyrimidin-4-yl)amino)phenyl)-N-methylmethanesulfonamide] | − (Protein degradation < 20%) | + (Protein degradation 20~80%)
4 | COc1cc(N2CCC(N3CCN(CCCCOc4cccc5c4C(=O)N(C4CCC(=O)NC4=O)C5=O)CC3)CC2)ccc1Nc1ncc(Cl)c(Nc2ccccc2N(C)S(C)(=O)=O)n1 (stereo not drawn) [Compound 15, N-(2-((5-chloro-2-((4-(4-(4-(4-((2-(2,6-dioxopiperidin-3-yl)-1,3-dioxoisoindolin-4-yl)oxy)butyl)piperazin-1-yl)piperidin-1-yl)-2-methoxyphenyl)amino)pyrimidin-4-yl)amino)phenyl)-N-methylmethanesulfonamide] | + (Protein degradation 20~80%) | + (Protein degradation 20~80%)
5 | COc1cc(N2CCN(CCOCCNc3cccc4c3C(=O)N(C3CCC(=O)NC3=O)C4=O)CC2)ccc1Nc1ncc(Cl)c(Nc2ccccc2N(C)S(C)(=O)=O)n1 (stereo not drawn) [Compound 16] | − (Protein degradation < 20%) | + (Protein degradation 20~80%)
6 | Cc1ncsc1-c1ccc(CNC(=O)[C@H]2C[C@@H](O)CN2C(=O)[C@@H](NC(=O)CCCCN2CCN(c3ccc(Nc4ncc(Cl)c(Nc5ccccc5N(C)S(C)(=O)=O)n4)cc3F)CC2)C(C)(C)C)cc1 [Compound 17, (2R,4R)-1-((S)-2-(5-(4-(4-((5-chloro-4-((2-(N-methylmethylsulfonamido)phenyl)amino)pyrimidin-2-yl)amino)-2-fluorophenyl)piperazin-1-yl)pentanamido)3,3-dimethylbutanoyl)4-hydroxy-N-(4-(4-methylthiazol-5-yl)benzyl)pyrrolidin-2-carboxamide] | + (Protein degradation 20~80%) | − (Protein degradation < 20%)
